Experimental data reported in PubChem BioAssay AID434987 (Southern Research Specialized Biocontainment Screening …, 2010).
The source made the active and inactive calls. The rule behind the calls is not given here.

Tested on: M. tuberculosis H37Rv growth inhibition with meropenem
Assay: dose response, H37Rv, with and without meropenem (AID 434987);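 note: growth over 7 days at 37 °C before Alamar Blue read on day 9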
[1] = M. tuberculosis H37Rv growth inhibition, measured here: IC50 without meropenem
[2] = M. tuberculosis H37Rv growth inhibition, measured here: IC90 without meropenem
[3] = measured here: IC90 with meropenem

Structure (SMILES): N#Cc1ccccc1/C=N/Nc1nc(-c2ccccc2)c2cc(Br)ccc2n1
- IC50: > 100 µM (inactive)
- IC50 [1]: > 100 µM
- IC90 [2]: > 100 µM
- IC90 [3]: > 100 µM

Structure (SMILES): COc1ccc2nc(NC(=O)c3ccc(Br)s3)sc2c1
- IC50: > 100 µM (inactive)
- IC50 [1]: > 100 µM
- IC90 [2]: > 100 µM
- IC90 [3]: > 100 µM

Structure (SMILES): C/C(=N/NC(=O)c1cccs1)c1c(C)[nH]n(-c2nc3ccccc3s2)c1=O
- IC50: 1.44 µM (inactive)
- IC50 [1]: 1.52 µM
- IC90 [2]: 1.69 µM
- IC90 [3]: 1.58 µM

Structure (SMILES): COc1cc(C(=S)N2CCOCC2)ccc1OC(=O)c1ccc([N+](=O)[O-])cc1[N+](=O)[O-]
- IC50: 3.24 µM (inactive)
- IC50 [1]: 6.01 µM
- IC90 [2]: 7.13 µM
- IC90 [3]: 5.92 µM

Structure (SMILES): O=C(CC1SC(=O)NC1=O)Oc1ccc(/C=N/NC(=O)c2ccccc2O)cc1 (configuration not stated)
- IC50: 6.41 µM
- IC50 [1]: 41.3 µM
- IC90 [2]: > 100 µM
- IC90 [3]: > 100 µM

Structure (SMILES): CC(=O)NC(=S)Nc1ccc(NC(=O)c2cccnc2Cl)cc1
- IC50: > 100 µM (inactive)
- IC50 [1]: > 100 µM
- IC90 [2]: > 100 µM
- IC90 [3]: > 100 µM

Structure (SMILES): CCc1ccc(N2C(=O)c3sc4nnc(-c5ccccc5)c(=O)n4c3C2=O)cc1
- IC50: > 100 µM (inactive)
- IC50 [1]: > 100 µM
- IC90 [2]: > 100 µM
- IC90 [3]: > 100 µM

Structure (SMILES): CCCCC(=O)NC(=S)Nc1ccc(NC(=O)C(C)C)c(OC)c1
- IC50: 99.9 µM (inactive)
- IC50 [1]: > 100 µM
- IC90 [2]: > 100 µM
- IC90 [3]: > 100 µM

Structure (SMILES): CCOC(=O)COc1ccc2nsnc2c1
- IC50: 23.5 µM (inactive)
- IC50 [1]: 27 µM
- IC90 [2]: > 100 µM
- IC90 [3]: 26 µM

Structure (SMILES): CCSc1nnc(NC(=O)CSc2nccn2-c2cccc(C)c2)s1
- IC50: > 100 µM (inactive)
- IC50 [1]: > 100 µM
- IC90 [2]: > 100 µM
- IC90 [3]: > 100 µM

Structure (SMILES): Cc1ccc2occ(/C=C/C(=O)c3ccccc3O)c(=O)c2c1
- IC50: 50.2 µM (inactive)
- IC50 [1]: > 100 µM
- IC90 [2]: > 100 µM
- IC90 [3]: > 100 µM

Structure (SMILES): CN(C)c1ccc(/C=N/NC(=O)c2cc(-c3ccc4c(c3)OCO4)n[nH]2)cc1
- IC50: > 100 µM (inactive)
- IC50 [1]: > 100 µM
- IC90 [2]: > 100 µM
- IC90 [3]: > 100 µM

Structure (SMILES): COc1ccc([C@H]2CC(=O)C=C(/C=C/c3ccccc3)C2)cc1OC
- IC50: > 100 µM (inactive)
- IC50 [1]: > 100 µM
- IC90 [2]: > 100 µM
- IC90 [3]: > 100 µM

Structure (SMILES): O=C1C=C2C=C[C@@H]3CC2(O1)[C@H]1CCCCN31
- IC50: 78.1 µM (inactive)
- IC50 [1]: > 100 µM
- IC90 [2]: > 100 µM
- IC90 [3]: > 100 µM

Structure (SMILES): CSc1ccc(-c2nnn(CC(=O)NCc3ccccc3)n2)cc1
- IC50: 15.8 µM
- IC50 [1]: > 100 µM
- IC90 [2]: > 100 µM
- IC90 [3]: > 100 µM

Structure (SMILES): O=C(Nc1ccc(Cl)cc1Cl)C1=Cc2ccccc2OC1
- IC50: > 100 µM (inactive)
- IC50 [1]: > 100 µM
- IC90 [2]: > 100 µM
- IC90 [3]: > 100 µM

Structure (SMILES): CCOc1ccc2nc(N3CCC(C(=O)NC4CCCCC4)CC3)sc2c1
- IC50: > 100 µM (inactive)
- IC50 [1]: > 100 µM
- IC90 [2]: > 100 µM
- IC90 [3]: > 100 µM

Structure (SMILES): Cn1c(=O)[nH]c(=O)c2c1nc(Br)n2CCC(=O)c1ccccc1
- IC50: 38.6 µM
- IC50 [1]: > 100 µM
- IC90 [2]: > 100 µM
- IC90 [3]: > 50 µM

Structure (SMILES): CCOC(=O)Cn1nc(-c2ccc(C)cc2)c2ccccc2c1=O
- IC50: 17.5 µM
- IC50 [1]: > 100 µM
- IC90 [2]: > 100 µM
- IC90 [3]: > 50 µM

Structure (SMILES): Cc1nn(CCc2nn[nH]n2)c2nc(-c3ccc(C4CCCCC4)cc3)cc(C(F)(F)F)c12
- IC50: 8.62 µM
- IC50 [1]: 24.9 µM
- IC90 [2]: 50 µM
- IC90 [3]: > 100 µM

Structure (SMILES): COc1cccc(C(=O)C2CCCN(Cc3ccccn3)C2)c1 (configuration not stated)
- IC50: 1.46 µM
- IC50 [1]: 16.2 µM
- IC90 [2]: > 100 µM
- IC90 [3]: 97.5 µM

Structure (SMILES): CC(C)(C)NS(=O)(=O)c1ccc(NC(=O)C(Sc2ccccc2)c2ccccc2)cc1 (configuration not stated)
- IC50: > 100 µM (inactive)
- IC50 [1]: > 100 µM
- IC90 [2]: > 100 µM
- IC90 [3]: > 100 µM

Structure (SMILES): CSc1nnc(C)c(/C=C/Nc2ccc(Cl)cc2)n1
- IC50: 94 µM (inactive)
- IC50 [1]: 94.5 µM
- IC90 [2]: > 100 µM
- IC90 [3]: > 100 µM

Structure (SMILES): CSc1ccccc1NC(=O)c1c(Br)cnn1C
- IC50: 28.4 µM
- IC50 [1]: 82.7 µM
- IC90 [2]: > 100 µM
- IC90 [3]: > 100 µM

Structure (SMILES): O=C(c1cnn2c(C(F)(F)F)cc(-c3cccs3)nc12)N1CCN(C(c2ccccc2)c2ccccc2)CC1
- IC50: 26.6 µM (inactive)
- IC50 [1]: 32.5 µM
- IC90 [2]: > 100 µM
- IC90 [3]: > 100 µM

Structure (SMILES): CCCCCCCN(C(=O)CCl)c1ccccc1C
- IC50: 4.49 µM
- IC50 [1]: 11.8 µM
- IC90 [2]: 37.3 µM
- IC90 [3]: 35.2 µM

Structure (SMILES): Cc1ccc(Nc2nc(N)nc(CC#N)n2)cc1
- IC50: 61.3 µM (inactive)
- IC50 [1]: 75.6 µM
- IC90 [2]: > 100 µM
- IC90 [3]: 92.7 µM

Structure (SMILES): Cc1ccc(C)c(N2CCN(C3CCCC(C)C3)CC2)c1 (configuration not stated)
- IC50: 37.9 µM (inactive)
- IC50 [1]: 48.7 µM
- IC90 [2]: > 100 µM
- IC90 [3]: 48.2 µM

Structure (SMILES): O=C(CSc1n[nH]c(=O)n1C1CC1)c1ccc2c(c1)OCCO2
- IC50: 4.9 µM
- IC50 [1]: 46.3 µM
- IC90 [2]: > 100 µM
- IC90 [3]: > 100 µM

Structure (SMILES): O=C(Nc1ccc(Br)cc1)c1cccnc1N1CCCCC1
- IC50: > 100 µM (inactive)
- IC50 [1]: > 100 µM
- IC90 [2]: > 100 µM
- IC90 [3]: > 100 µM

Structure (SMILES): COCc1nnc(NC(=O)c2ccc(S(=O)(=O)N(C)c3ccccc3)cc2)o1
- IC50: 17.4 µM (inactive)
- IC50 [1]: 40.3 µM
- IC90 [2]: > 100 µM
- IC90 [3]: > 100 µM

Structure (SMILES): CCc1nnc(NC(=O)c2ccc3nc(CC)c(CC)nc3c2)s1
- IC50: 46.6 µM (inactive)
- IC50 [1]: > 100 µM
- IC90 [2]: > 100 µM
- IC90 [3]: > 100 µM

Structure (SMILES): Nc1nc(Sc2ncccc2[N+](=O)[O-])n[nH]1
- IC50: 21.6 µM (inactive)
- IC50 [1]: 37.4 µM
- IC90 [2]: > 50 µM
- IC90 [3]: 77.1 µM

Structure (SMILES): OC1C(O)C(O)C(O)C(O)C1O (configuration not stated)
- IC50: > 100 µM (inactive)
- IC50 [1]: > 100 µM
- IC90 [2]: > 100 µM
- IC90 [3]: > 100 µM

Structure (SMILES): COc1ccc(-c2cc3cc(OC)c(OC)cc3c(C)n2)cc1
- IC50: > 100 µM (inactive)
- IC50 [1]: > 100 µM
- IC90 [2]: > 100 µM
- IC90 [3]: > 100 µM

Structure (SMILES): Cc1cc(C)nc(SCC(=O)Nc2ccccc2[N+](=O)[O-])n1
- IC50: 14.4 µM (inactive)
- IC50 [1]: 27.9 µM
- IC90 [2]: > 100 µM
- IC90 [3]: > 100 µM

Structure (SMILES): C/C(=N\NC(=O)c1csc2ccccc12)c1ccc(O)cc1
- IC50: > 100 µM (inactive)
- IC50 [1]: > 100 µM
- IC90 [2]: > 100 µM
- IC90 [3]: > 100 µM

Structure (SMILES): O=C(Cc1cccc2ccccc12)N/N=C/c1ccc(O)c([N+](=O)[O-])c1
- IC50: 17.3 µM (inactive)
- IC50 [1]: 27.2 µM
- IC90 [2]: 47.2 µM
- IC90 [3]: 31.6 µM

Structure (SMILES): Cc1cc(C)n(-c2nc(-c3ccc(Cl)c(Cl)c3)cs2)n1
- IC50: 14.5 µM
- IC50 [1]: > 100 µM
- IC90 [2]: > 100 µM
- IC90 [3]: > 100 µM

Structure (SMILES): CN1C(=O)/C(=C/c2ccc(C(=O)NC3CCCC3)cc2)Oc2ccccc21
- IC50: > 100 µM (inactive)
- IC50 [1]: > 100 µM
- IC90 [2]: > 100 µM
- IC90 [3]: > 100 µM

Structure (SMILES): OC(COC(c1ccccc1)c1ccccc1)CN1CCN(c2cccc(Cl)c2)CC1 (configuration not stated)
- IC50: 44.6 µM (inactive)
- IC50 [1]: 47.4 µM
- IC90 [2]: > 100 µM
- IC90 [3]: > 100 µM

Structure (SMILES): CCCSc1nnc(NC(=O)c2sc3nc(-c4cccs4)ccc3c2N)s1
- IC50: 62.8 µM (inactive)
- IC50 [1]: > 100 µM
- IC90 [2]: > 100 µM
- IC90 [3]: > 100 µM

Structure (SMILES): Cc1cc(C)cc(OCC(=O)NNC(=O)c2ccccn2)c1
- IC50: 1.66 µM
- IC50 [1]: 10.9 µM
- IC90 [2]: 22.3 µM
- IC90 [3]: 16 µM
